Test results as given in patent US9907800B2, “Kinase inhibitors and method of treating cancer” (University Health Network, priority 2010, dated 2018).
pIC50: −log10 of the molar value. Counter-ions that a name gives are not always drawn.

Assays:
Aurora B = Aurora B (Homo sapiens (Human), UniProt Q96GD4); experiment: Aurora B inhibition assay (Z-Lyte); assay type: biochemical; conditions: read-out: Aurora B IC50 Ranges
Procedure: Aurora B inhibition was determined using the Z-Lyte assay kit from Invitrogen. […] The % inhibition values were determined according to the manufacturer's directions and IC50 values were obtained using a non-linear 4 point logistic curve fit (XLfit4, IDBS)

human PLK4 = human PLK4 (Homo sapiens (Human), UniProt O00444); experiment: PLK4 inhibition assay (indirect ELISA); assay type: biochemical; conditions: read-out: PLK4 IC50 Ranges
human PLK4, sequence (O00444 1-391): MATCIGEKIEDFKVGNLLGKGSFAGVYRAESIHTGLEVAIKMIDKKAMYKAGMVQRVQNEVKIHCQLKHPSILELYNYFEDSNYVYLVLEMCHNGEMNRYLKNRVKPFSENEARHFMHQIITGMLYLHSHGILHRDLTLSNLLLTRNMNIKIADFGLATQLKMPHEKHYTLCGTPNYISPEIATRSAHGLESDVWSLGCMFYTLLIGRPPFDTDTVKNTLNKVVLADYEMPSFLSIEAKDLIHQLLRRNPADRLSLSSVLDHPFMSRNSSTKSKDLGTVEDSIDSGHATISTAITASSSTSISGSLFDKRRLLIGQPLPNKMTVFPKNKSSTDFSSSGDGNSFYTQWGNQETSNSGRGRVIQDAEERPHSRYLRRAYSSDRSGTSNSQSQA

Aurora B, sequence (Q96GD4 whole entry): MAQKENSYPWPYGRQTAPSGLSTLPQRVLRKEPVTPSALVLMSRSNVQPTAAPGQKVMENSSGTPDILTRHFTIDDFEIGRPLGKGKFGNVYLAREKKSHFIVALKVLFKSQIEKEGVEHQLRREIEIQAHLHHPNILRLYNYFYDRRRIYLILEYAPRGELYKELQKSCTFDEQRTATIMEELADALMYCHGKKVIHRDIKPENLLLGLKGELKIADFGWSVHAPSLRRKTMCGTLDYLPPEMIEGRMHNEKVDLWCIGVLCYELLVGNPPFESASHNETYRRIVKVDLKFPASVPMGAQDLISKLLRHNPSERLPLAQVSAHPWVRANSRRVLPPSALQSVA

SMILES | pIC50 (Aurora B) | pIC50 (human PLK4)
COCCN1C(=O)[C@@]2(C[C@H]2c2ccc3c(/C=C/c4ccc(CN(C)C)cc4)n[nH]c3c2)c2ccccc21 (relative stereo) [Example A180, (1R*,2S*)-(E)-2-(3-(4-((dimethylamino)methyl)styryl)-1H-indazol-6-yl)-1′-(2-methoxyethyl)spiro[cyclopropane-1,3′-indolin]-2′-one 2,2,2-trifluoroacetate] | > 7.00 | > 7.00
COc1ccc2c(c1)[C@]1(C[C@H]1c1ccc3c(/C=C/c4csc(CN(C)C)c4)n[nH]c3c1)C(=O)N2 (relative stereo) [Example A181, (1R,2S)-2-(3-((E)-2-(5-((dimethylamino)methyl)thiophen-3-yl)vinyl-1H-indazol-6-yl)-5′-methoxyspiro[cyclopropane-1,3′-indolin]-2′-one 2,2,2-trifluoro acetate] | > 7.00 | > 7.00
COc1ccc2c(c1)[C@]1(C[C@H]1c1ccc3c(I)n[nH]c3c1)C(=O)N2 [Example A7, (1R,2S)-2-(3-iodo-1H-indazol-6-yl)-5′-methoxyspiro[cyclopropane-1,3′-indolin]-2′-one] | 6.00 to 7.00 | > 7.00
COc1ccc2c(c1)[C@@]1(C[C@@H]1c1ccc3c(-c4ccc(N5CCN(C)CC5)nc4)n[nH]c3c1)C(=O)N2 [Example A15, (1S,2R)-5′-methoxy-2-(3-(6-(4-methylpiperazin-1-yl)pyridin-3-yl)-1H-indazol-6-yl)spiro[cyclopropane-1,3′-indolin]-2′-one] | < 6.00 | > 7.00
COc1ccc2c(c1)[C@@]1(C[C@@H]1c1ccc3c(-c4ccc(N5CCNCC5)cc4)n[nH]c3c1)C(=O)N2 [Example A50, (1S,2R)-5′-methoxy-2-(3-(4-(piperazin-1-yl)phenyl)-1H-indazol-6-yl)spiro[cyclopropane-1,3′-indolin]-2′-one 2,2,2-trifluoroacetate] | > 7.00 | > 7.00
COc1ccc2c(c1)[C@]1(C[C@H]1c1ccc3c(/C=C/c4ccc5c(c4)CN(C)CC5)n[nH]c3c1)C(=O)N2 [Example A64, (1R,2S)-5′-methoxy-2-(3-((E)-2-(2-methyl-1,2,3,4-tetrahydroisoquinolin-7-yl)vinyl)-1H-indazol-6-yl)spiro[cyclopropane-1,3′-indolin]-2′-one 2,2,2-trifluoroacetate salt] | > 7.00 | > 7.00
CN1CCc2ccc(/C=C/c3n[nH]c4cc([C@@H]5C[C@@]56C(=O)Nc5ccccc56)ccc34)cc2C1 [Example A65, (1R,2S)-2-(3-((E)-2-(2-methyl-1,2,3,4-tetrahydroisoquinolin-7-yl)vinyl)-1H-indazol-6-yl)spiro[cyclopropane-1,3′-indolin]-2′-one 2,2,2-trifluoroacetate salt] | > 7.00 | > 7.00
COc1ccc2c(c1)[C@]1(C[C@H]1c1ccc3c(/C=C/c4ccc5c(c4)CNCC5)n[nH]c3c1)C(=O)N2 [Example A66, (1R,2S)-5′-methoxy-2-(3-((E)-2-(1,2,3,4-tetrahydroisoquinolin-7-yl)vinyl)-1H-indazol-6-yl)spiro[cyclopropane-1,3′-indolin]-2′-one 2,2,2-trifluoroacetate salt] | > 7.00 | > 7.00
COc1ccc2c(c1)[C@]1(C[C@H]1c1ccc3c(-c4ccc(OCCN5CCCCC5)cc4)n[nH]c3c1)C(=O)N2 [Example A67, (1R,2S)-5′-methoxy-2-(3-(4-(2-(piperidin-1-yl)ethoxy)phenyl)-1H-indazol-6-yl)spiro[cyclopropane-1,3′-indolin]-2′-one 2,2,2-trifluoroacetate salt] | > 7.00 | > 7.00
COc1ccc2c(c1)[C@]1(C[C@H]1c1ccc3c(-c4ccc(OCCN(C)C)cc4)n[nH]c3c1)C(=O)N2 [Example A69, (1R,2S)-2-(3-(4-(2-(dimethylamino)ethoxy)phenyl)-1H-indazol-6-yl)-5′-methoxyspiro[cyclopropane-1,3′-indolin]-2′-one 2,2,2-trifluoroacetate salt] | > 7.00 | > 7.00
COc1ccc2c(c1)[C@]1(C[C@H]1c1ccc3c(-c4ccc5c(c4)CN(C)CC5)n[nH]c3c1)C(=O)N2 [Example A70, (1R,2S)-5′-methoxy-2-(3-(2-methyl-1,2,3,4-tetrahydroisoquinolin-7-yl)-1H-indazol-6-yl)spiro[cyclopropane-1,3′-indolin]-2′-one 2,2,2-trifluoroacetate salt] | > 7.00 | > 7.00
COc1ccc2c(c1)[C@]1(C[C@H]1c1ccc3c(/C=C/c4ccc(CN5CCCOCC5)cc4)n[nH]c3c1)C(=O)N2 [Example A73, (1R,2S)-(E)-2-(3-(4-((1,4-oxazepan-4-yl)methyl)styryl)-1H-indazol-6-yl)-5′-methoxyspiro[cyclopropane-1,3′-indolin]-2′-one 2,2,2-trifluoroacetate salt] | > 7.00 | > 7.00
CN1CCc2cc(/C=C/c3n[nH]c4cc([C@@H]5C[C@@]56C(=O)Nc5ccccc56)ccc34)ccc2C1 [Example A74, (1R,2S)-2-(3-((E)-2-(2-methyl-1,2,3,4-tetrahydroisoquinolin-6-yl)vinyl)-1H-indazol-6-yl)spiro[cyclopropane-1,3′-indolin]-2′-one 2,2,2-trifluoroacetate salt] | > 7.00 | > 7.00
COc1ccc2c(c1)[C@]1(C[C@H]1c1ccc3c(/C=C/c4ccc5c(c4)CCN(C)C5)n[nH]c3c1)C(=O)N2 [Example A75, (1R,2S)-5′-methoxy-2-(3-((E)-2-(2-methyl-1,2,3,4-tetrahydroisoquinolin-6-yl)vinyl)-1H-indazol-6-yl)spiro[cyclopropane-1,3′-indolin]-2′-one 2,2,2-trifluoroacetate salt] | > 7.00 | > 7.00
CN1CCc2cc(-c3n[nH]c4cc([C@@H]5C[C@@]56C(=O)Nc5ccccc56)ccc34)ccc2C1 [Example A76, (1R,2S)-2-(3-(2-methyl-1,2,3,4-tetrahydroisoquinolin-6-yl)-1H-indazol-6-yl)spiro[cyclopropane-1,3′-indolin]-2′-one 2,2,2-trifluoroacetate salt] | > 7.00 | > 7.00
COc1ccc2c(c1)[C@]1(C[C@H]1c1ccc3c(/C=C/c4ccc(OC5CCN(C)CC5)cc4)n[nH]c3c1)C(=O)N2 [Example A79, (1R,2S)-(E)-5′-methoxy-2-(3-(4-(1-methylpiperidin-4-yloxy)styryl)-1H-indazol-6-yl)spiro[cyclopropane-1,3′-indolin]-2′-one 2,2,2-trifluoroacetate salt] | > 7.00 | > 7.00
CC(C)(c1ccc(/C=C/c2n[nH]c3cc([C@@H]4C[C@@]45C(=O)Nc4ccccc45)ccc23)cc1)N1CCOCC1 [Example A80, (1R,2S)-(E)-2-(3-(4-(2-morpholinopropan-2-yl)styryl)-1H-indazol-6-yl)spiro[cyclopropane-1,3′-indolin]-2′-one 2,2,2-trifluoroacetate salt] | 6.00 to 7.00 | > 7.00
CN1CCC(Cc2ccc(/C=C/c3n[nH]c4cc([C@@H]5C[C@@]56C(=O)Nc5ccccc56)ccc34)cc2)CC1 [Example A81, (1R,2S)-(E)-2-(3-(4-((1-methylpiperidin-4-yl)methyl)styryl)-1H-indazol-6-yl)spiro[cyclopropane-1,3′-indolin]-2′-one 2,2,2-trifluoroacetate salt] | > 7.00 | > 7.00
COc1ccc2c(c1)[C@]1(C[C@H]1c1ccc3c(/C=C/c4ccc(CC5CCN(C)CC5)cc4)n[nH]c3c1)C(=O)N2 [Example A82, (1R,2S)-(E)-5′-methoxy-2-(3-(4-((1-methylpiperidin-4-yl)methyl)styryl)-1H-indazol-6-yl)spiro[cyclopropane-1,3′-indolin]-2′-one 2,2,2-trifluoroacetate salt] | > 7.00 | > 7.00
COc1ccc2c(c1)[C@]1(C[C@H]1c1ccc3c(/C=C/c4ccc(CN5CCCC5)cc4)n[nH]c3c1)C(=O)N2 [Example A83, (1R,2S)-(E)-5′-methoxy-2-(3-(4-(pyrrolidin-1-ylmethyl)styryl)-1H-indazol-6-yl)spiro[cyclopropane-1,3′-indolin]-2′-one 2,2,2-trifluoroacetate] | > 7.00 | > 7.00
CN1C(=O)[C@@]2(C[C@H]2c2ccc3c(/C=C/c4ccc(N5CCNCC5)cc4)n[nH]c3c2)c2ccccc21 [Example A90, (1R,2S)-(E)-1′-methyl-2-(3-(4-(piperazin-1-yl)styryl)-1H-indazol-6-yl)spiro[cyclopropane-1,3′-indolin]-2′-one hydrochloride] | > 7.00 | > 7.00
O=C1Nc2ccccc2[C@]12C[C@H]2c1ccc2c(/C=C/c3ccc(N4CCNCC4)cc3)n[nH]c2c1 [Example A92, (1R,2S)-(E)-2-(3-(4-(piperazin-1-yl)styryl)-1H-indazol-6-yl)spiro[cyclopropane-1,3′-indolin]-2′-one 2,2,2-trifluoroacetate] | > 7.00 | > 7.00
CN1C(=O)[C@@]2(C[C@H]2c2ccc3c(/C=C/c4ccc(CN5CCCCC5)cc4)n[nH]c3c2)c2ccccc21 [Example A94, (1R,2S)-(E)-1′-methyl-2-(3-(4-(piperidin-1-ylmethyl)styryl)-1H-indazol-6-yl)spiro[cyclopropane-1,3′-indolin]-2′-one hydrochloride] | > 7.00 | > 7.00
COc1ccc2c(c1)[C@]1(C[C@H]1c1ccc3c(-c4ccc(N5CCNCC5)cc4)n[nH]c3c1)C(=O)N2C [Example A101, (1R,2S)-5′-methoxy-1′-methyl-2-(3-(4-(piperazin-1-yl)phenyl)-1H-indazol-6-yl)spiro[cyclopropane-1,3′-indolin]-2′-one 2,2,2-trifluoroacetate] | > 7.00 | > 7.00
COc1ccc2c(c1)[C@]1(C[C@H]1c1ccc3c(/C=C/c4ccc(CN5CCOCC5)s4)n[nH]c3c1)C(=O)N2 [Example A105, (1R,2S)-5′-methoxy-2-(3-((E)-2-(5-(morpholinomethyl)thiophen-2-yl)vinyl)-1H-indazol-6-yl)spiro[cyclopropane-1,3′-indolin]-2′-one hydrochloride] | > 7.00 | > 7.00
